US9789127B2, “N-acyl-phosphatidyl-ethanolamines and/or mixtures of N-acyl-ethanolamines with phosphatidic acids or lysophosphatidic acids” (HUNZA DI PISTOLESI ELVIRA & C. S.A.S., priority 2003, dated 2017)

What was measured:
ghost erythrocytes = assay: Membrane fluidity of ghost erythrocytes (TMA-DPH fluorescent probe) of rats on a high-calorie, high-fat, high-cholesterol diet; type: in vivo, rat; conditions: expressed as a % of the control values at time 0; rats after 20 day diet treatment, substance in the diet
Experimental: (§1) In the experimental tests, the rats were given a high-calorie, high-triglyceride, high-cholesterol diet. The following parameters were evaluated after twenty days treatment: • 1) effect of the compositions on the lipoperoxide levels in the plasma, liver, brain and heart; • 2) effect of the compositions on variations in body weight; • 3) effect of the compositions on variations in membrane fluidity of ghost erythrocytes and plasma platelets; • 4) effect of the compositions on the functionality of the hepatic mitochondria, evaluated by measuring: a) O2 consumption; b) reduced glutathione; c) the potential of the mitochondrial membranes; • 5) effect of the compositions on plasma levels of total cholesterol and HDL-cholesterol; • 6) effect of the compositions on plasma levels of total triglycerides.
(§2) 80 Male rats weighing 150-200 g each were used. […] The animals were given the same diet as the controls for 20 days, except that 50 mg of NOPE and 25 mg of B.F. (corresponding to ˜75 mg of the preparation described in example 6) replaced the same quantity of olive oil (olive oil used: 4.825%). • 7th group: treated with green tea bioflavones (B.F.). The animals were given the same diet as the controls for 20 days, except that 25 mg of B.F. replaced the same quantity of olive oil (olive oil used: 4.875%). […]

plasma platelets = assay: Membrane fluidity of plasma platelets (TMA-DPH fluorescent probe) of rats on a high-calorie, high-fat, high-cholesterol diet; type: in vivo, rat; conditions: expressed as a % of the control values at time 0; rats after 20 day diet treatment, substance in the diet
Experimental: as §1, §2

[1] = test system: lipoperoxide levels (malonyldialdehyde, MDA); assay: Lipoperoxide levels (malonyldialdehyde) in plasma, liver, brain and heart of rats on the diet; type: in vivo, rat; conditions: rats after 20 day diet treatment
Experimental: as §1
(§3) 80 Male rats weighing 150-200 g each were used. The animals were divided into 8 groups of 10 animals: • 1st group: control (C); 10 animals (control at time 0) were used as is, and 10 were given a standard high-calorie, high-fat, high-cholesterol diet for 20 days, consisting of: • casein: 20%; mixture of trace elements and mineral salts: 3.5%; mixture of vitamins: 0.1%; choline bitartrate: 0.2%; cellulose: 2%; cholesterol: 0.5%; sodium cholate: 0.25%; saccharose: 58.44%, lard: 10.0% and olive oil: 4.9%. • 2nd group: treated with N-oleoyl-ethanolamine as such (NOE); the animals were given the same diet as the controls for 20 days, except that 50 mg of NOE replaced the same quantity of olive oil (olive oil used: 4.85%). • 3rd group: treated with N-oleoyl-phosphatidylethanolamine prepared as described in example 1 (NOPE); the animals were given the same diet as the controls for 20 days, except that 50 mg of NOPE (prepared as described in example 1) replaced the same quantity of olive oil (olive oil used: 4.85%). • 4th group: treated with N-oleoyl-ethanolamine+phosphatidic acid prepared as described in example 2: (NOE+PA); the animals were given the same diet as the controls for 20 days, except that 400 mg of the preparation described in example 2 (containing ˜50 mg of NOE and 150 mg of PA) replaced the same quantity of olive oil (olive oil used: 4.50%). • 5th group: treated with N-oleoyl-ethanolamine+lysophosphatidic acid prepared as described in example 3: (NOE+LPA); the animals were given the same diet as the controls for 20 days, except that 150 mg of the preparation described in example 3 (containing ˜50 mg of NOE and 100 mg of LPA) replaced the same quantity of olive oil (olive oil used: 4.75%). • 6th group: treated with “phosphobioflavonic complexes” of N-oleoyl-phosphatidylethanolamine and green tea bioflavones (B.F.) prepared as described in example 6 (NOPE+B.F.). The animals were given the same diet as the controls for 20 days, except that 50 mg of NOPE and 25 mg of B.F. (corresponding to ˜75 mg of the preparation described in example 6) replaced the same quantity of olive oil (olive oil used: 4.825%). • 7th group: treated with green tea bioflavones (B.F.). The animals were given the same diet as the controls for 20 days, except that 25 mg of B.F. replaced the same quantity of olive oil (olive oil used: 4.875%).
Malonyldialdehyde is assayed in accordance with the procedure described by K. Yagi et al., 1982, in “Lipid Peroxides in Biology and Medicine”, Academic Press, New York, 99.324-340.

[2] = Plasma total cholesterol, HDL cholesterol and triglyceride levels of rats on the diet; type: in vivo, rat; conditions: rats after 20 day diet treatment
Experimental: as §1, §3

[3] = Variation in body weight of rats on the diet; type: in vivo, rat; conditions: rats after 20 day diet treatment
Experimental: as §1
(§4) 80 Male rats weighing 150-200 g each were used. […] The animals were given the same diet as the controls for 20 days, except that 50 mg of NOPE and 25 mg of B.F. (corresponding to ˜75 mg of the preparation described in example 6) replaced the same quantity of olive oil (olive oil used: 4.825%). • 7th group: treated with green tea bioflavones (B.F.). The animals were given the same diet as the controls for 20 days, except that 25 mg of B.F. replaced the same quantity of olive oil (olive oil used: 4.875%).

hepatic mitochondria [4] = assay: Functionality of hepatic mitochondria: hepatocellular O2 consumption; type: in vivo, rat; conditions: rats after 20 day diet treatment
Experimental: as §1, §2

hepatic mitochondria [5] = assay: Functionality of hepatic mitochondria: reduced hepatocellular glutathione content; type: in vivo, rat; conditions: rats after 20 day diet treatment
Experimental: as §1, §2

hepatic mitochondria [6] = assay: Functionality of hepatic mitochondria: mitochondrial membrane potential; type: in vivo, rat; conditions: control rats at time 0 = 100%; rats after 20 day diet treatment
Experimental: as §1, §2

[7] = Experimental tests on rats, 20 day diet treatment: overall assessment of Tables I-IV; type: in vivo, rat; conditions: oral administration, 20 days
Experimental: as §1, §4

[8] = Diet treatment tests carried out on man; type: in vivo; conditions: oral administration
Excerpt: A series of experimental tests on rats and clinical tests on man have been carried out to study the pharmacological and/or dietetic characteristics of the composition of the invention.
In all the diet treatment tests carried out on man, the effects obtainable by orally the formulations claimed by the invention (NAPE; NAE+PA; NAE+LPA; NAPE+B.F. and NAE plus PA and/or LPA+B.F.) always provided highly significant results and advantages, both in preventing biological signs of aging (improvement in mitochondrial activity, better membrane fluidity, improvement in plasma antioxidant defences, and limited weight increase) and improving the clinical parameters tested in relation to prevention of aging, and many of the metabolic disorders associated therewith.

| Molecule | Membrane fluidity (ghost erythrocytes) (ghost erythrocytes) [%] | Membrane fluidity (plasma platelets) (plasma platelets) [%] | MDA BRAIN [1] | MDA HEART [1] | MDA LIVER [1] | MDA PLASMA [1] | HDL cholesterol [2] [mg/dL] | Total cholesterol [2] [mg/dL] | Total triglycerides [2] [mg/dL] | Body weight [3] [gm] | Hepatocellular O2 consumption (hepatic mitochondria [4]) | Reduced glutathione (hepatic mitochondria [5]) [nmoles × 10^6 cells] | Mitochondrial membrane potential (hepatic mitochondria [6]) [%] | Statistical significance of the effects of Tables I-IV (membrane fluidity, antioxidant defences, body weight, cholesterol and triglycerides, mitochondria) [7] | Benefit in preventing biological signs of aging and improving clinical parameters [8] |
| --- | --- | --- | --- | --- | --- | --- | --- | --- | --- | --- | --- | --- | --- | --- | --- |
| CCCCCCCC/C=C\CCCCCCCC(=O)NCCO [NOE, N-oleoyl-ethanolamine] | 72 | 70 | 106 ± 7 nmoles of malonyldialdehyde (MDA) per gram of tissue | 44 ± 9 nmoles of malonyldialdehyde (MDA) per gram of tissue | 44.1 ± 8.2 nmoles of malonyldialdehyde (MDA) per gram of tissue | 5.0 ± 0.6 nmoles of malonyldialdehyde (M | 28.9 ± 2.8 | 120.4 ± 12.7 | 80.5 ± 6.8 | 221 ± 16 | 368 ± 52 umoles O2/min per 10^7 cells | 36 ± 6 | 70 | no statistically significant benefit | no significant benefit |
| N-oleoyl-phosphatidylethanolamine [NOPE] | 84 | 81 | 85 ± 9 nmoles of malonyldialdehyde (MDA) per gram of tissue | 32 ± 7 nmoles of malonyldialdehyde (MDA) per gram of tissue | 33.1 ± 6.5 nmoles of malonyldialdehyde (MDA) per gram of tissue | 3.8 ± 0.4 nmoles of malonyldialdehyde (M | 31.6 ± 3.9 | 110.3 ± 10.1 | 71.4 ± 8.7 | 209 ± 18 | 408 ± 62 umoles O2/min per 10^7 cells | 41 ± 5 | 81 | always statistically significant | – |
